Data taken from article PMC9189845, “Structure–Activity Relationships of 8-Hydroxyquinoline-Derived Mannich Bases with Tertiary Amines Targeting Multidrug-Resistant Cancer” (Journal of Medicinal Chemistry, 2022).
Counter-ions that a name gives are not always drawn. Like-named read-outs stand apart in the source and are kept apart here.

What was measured:
[1] = system: MES-SA/Dx5 cells; assay: PrestoBlue viability assay, MES-SA/Dx5 cells (MDR, P-gp positive); conditions: for pIC50 value MES-SA/Dx5: MES-SA/Dx5 cells, without TQ; for SR (MES-SA_TQ / Dx5_TQ) (values in parentheses): presence of 1 μM TQ
[2] = system: MES-SA cells; assay: PrestoBlue viability assay, MES-SA cells; conditions: for pIC50 value MES-SA: MES-SA cells, without TQ
[3] = Homo sapiens, MES-SA/Dx5, 72 h, read-out: IC50 / μM MES-SA/Dx5, absence of TQ, 72 h incubation
[4] = Homo sapiens, MES-SA/Dx5, read-out: pIC50 value MES-SA/Dx5, MES-SA/Dx5 cells, without TQ (converted)
[5] = selectivity ratio MES-SA vs MES-SA/Dx5, without TQ
[6] = Homo sapiens, MES-SA, 72 h, read-out: IC50 / μM MES-SA, absence of TQ, 72 h incubation
[7] = Homo sapiens, MES-SA, read-out: pIC50 value MES-SA, MES-SA cells, without TQ (converted)
[8] = read-out: IC50 / μM MES-SA/Dx5, absence of TQ, 72 h incubation
[9] = selectivity ratio MES-SA vs MES-SA/Dx5, with TQ
[10] = read-out: IC50 / μM MES-SA, absence of TQ, 72 h incubation
[11] = Homo sapiens, MES-SA/Dx5, read-out: IC50 / μM MES-SA/Dx5 (values in parentheses), presence of 1 μM P-gp inhibitor tariquidar (TQ)
[12] = fraction of IC50 in P-gp negative vs positive cells
[13] = Homo sapiens, MES-SA, read-out: IC50 / μM MES-SA (values in parentheses), presence of 1 μM P-gp inhibitor tariquidar (TQ)

Compound | IC50 [1, 3] [µM] | IC50 [1, 4] [µM] | SR [1, 5] | IC50 [2, 6] [µM] | IC50 [2, 7] [µM] | other results
Oc1c(C(c2ccncc2)N2CCCC2)ccc2cccnc12 (stereo not shown) [Compound 86] | 3.66 ± 0.45 | 3.63 | 1.64 | 5.99 ± 0.88 | 5.89 | 
Oc1c(C(c2ccc(C(F)(F)F)cc2)N2CCCC2)ccc2cccnc12 (racemic) [Compound 89] |  |  | 3.91 |  |  | pIC50 value MES-SA/Dx5 [1]: 5.56; IC50 [1, 8]: 2.83 ± 0.61 µM; SR_TQ [1, 9]: 1.12; pIC50 value MES-SA [2]: 4.98; IC50 [2, 10]: 11.1 ± 3.57 µM
Oc1c(C(c2cccs2)N2CCOCC2)cc(Cl)c2cccnc12 (stereo not shown) [Compound 110] | 14 ± 0.42 | 13.8 | 0.57 | 7.97 ± 1.01 | 7.94 | 
Oc1cccc2cccnc12 [Compound 12, 8-hydroxyquinoline] |  |  |  |  |  | SR [1]: 1.66; SR_TQ [1]: 2.34; IC50 ([1]; Homo sapiens, MES-SA/Dx5, 72 h, read-out: IC50 / μM MES-SA/Dx5): 3.04 ± 0.35 µM; IC50 ([1]; Homo sapiens, MES-SA/Dx5, read-out: IC50 / μM MES-SA/Dx5 (values in parentheses)): 2.2 ± 0.18 µM; IC50 ([1]; Homo sapiens, MES-SA/Dx5, read-out: pIC50 value MES-SA/Dx5 (converted)): 3.02 µM; IC50 ([1]; Homo sapiens, MES-SA/Dx5, read-out: pIC50 value MES-SA/Dx5 + TQ (converted)): 2.19 µM; IC50 ([2]; Homo sapiens, MES-SA, 72 h, read-out: IC50 / μM MES-SA): 5.04 ± 0.51 µM; IC50 ([2]; Homo sapiens, MES-SA, read-out: IC50 / μM MES-SA (values in parentheses)): 5.13 ± 0.05 µM; IC50 ([2]; Homo sapiens, MES-SA, read-out: pIC50 value MES-SA (converted)): 5.01 µM; IC50 ([2]; Homo sapiens, MES-SA, read-out: pIC50 value MES-SA+TQ (converted)): 5.13 µM
Oc1c(C(c2ccccc2Cl)N2CCCCC2)ccc2cccnc12 (stereo not shown) [Compound 95] |  |  | 1.85 |  |  | pIC50 value MES-SA/Dx5 [1]: 5.04; IC50 [1, 8]: 9.45 ± 2.11 µM; SR_TQ [1, 9]: 2.75; pIC50 value MES-SA [2]: 4.77; IC50 [2, 10]: 17.5 ± 4.45 µM
Oc1ccc(CN2CCCC2)c2cccnc12 [Compound 46] | 5.31 ± 0.52 | 5.25 | 1.47 | 7.81 ± 0.5 | 7.76 | 
CC1CCN(C(c2ccccc2)c2ccc3cccnc3c2O)CC1 (racemic) [Compound 99] |  |  | 0.76 |  |  | pIC50 value MES-SA/Dx5 [1]: 4.95; IC50 [1, 8]: 11.5 ± 1.75 µM; pIC50 value MES-SA [2]: 5.06; IC50 [2, 10]: 8.77 ± 0.24 µM
Oc1cc2c(cc1O)CN(Cc1ccc3cccnc3c1O)CC2 [Compound 82, 2-((8-Hydroxy-quinolin-7-yl)methyl)-1,2,3,4-tetrahydroisoquinoline-6,7-diol Hydrochloride] | 3.61 ± 0.51 | 3.55 | 0.95 | 3.42 ± 0.28 | 3.39 | 
COc1ccc(C(c2ccc3cccnc3c2O)N2CCOCC2)cc1 (stereo not shown) [Compound 107] |  |  | 1.29 |  |  | pIC50 value MES-SA/Dx5 [1]: 4.81; IC50 [1, 8]: 15.8 ± 2.97 µM; pIC50 value MES-SA [2]: 4.69; IC50 [2, 10]: 20.3 ± 1.7 µM
Cc1ccc(O)c(C(=O)N2CCOCC2)c1 [Compound 68] | > 100 |  |  | > 100 | 380 | 
Oc1c(C(c2ccccc2)N2CCOCC2)ccc2cccnc12 (stereo not shown) [Compound 102] | 11.7 ± 1.15 | 11.5 | 1.84 | 21.4 ± 1.01 | 21.4 | 
CCN(CC)Cc1ccc(O)c2ncccc12 [Compound 45] | 5.02 ± 0.26 | 5.01 | 0.9 | 4.5 ± 0.04 | 4.47 | 
O=C(c1ccccc1O)N1CCOCC1 [Compound 67] | > 100 |  |  | > 100 |  | 
2-((4-Methylpiperazin-1-yl)methyl)phenol [Compound 72] |  |  |  |  |  | IC50 [1, 8]: > 100 µM; IC50 [2, 10]: > 100 µM
Oc1ccc(CN2CCc3ccccc3C2)c2cccnc12 [Compound 50] | 17 ± 0.49 | 17 | 0.99 | 16.7 ± 1.5 | 16.6 | 
Oc1c(C(c2cccs2)N2CCCCC2)ccc2cccnc12 (stereo not shown) [Compound 94] | 11.6 ± 0.94 | 11.5 | 0.76 | 8.88 ± 0.93 | 8.91 | 
Oc1c(C(c2ccc(F)cc2)N2CCOCC2)ccc2cccnc12 (stereo not shown) [Compound 106] |  |  | 2.24 |  |  | pIC50 value MES-SA/Dx5 [1]: 4.86; IC50 [1, 8]: 14.9 ± 6.17 µM; SR_TQ [1, 9]: 1.15; pIC50 value MES-SA [2]: 4.51; IC50 [2, 10]: 33.4 ± 13.2 µM
CCN1CCN(Cc2cc(OC)ccc2O)CC1 [Compound 74] | > 100 |  |  | > 100 |  | 
OCCN1CCN(C(c2ccc(F)cc2)c2ccc3cccnc3c2O)CC1 (racemic) [Compound 120] |  |  | 2.29 |  |  | pIC50 value MES-SA/Dx5 [1]: 4.55; IC50 [1, 8]: 29.1 ± 7.12 µM; SR_TQ [1, 9]: 1.55; pIC50 value MES-SA [2]: 4.18; IC50 [2, 10]: 66.7 ± 4.56 µM
CN1CCN(C(c2cccnc2)c2ccc3cccnc3c2O)CC1 (stereo not shown) [Compound 111] | 35.9 ± 4.93 | 35.5 | 1.53 | 54.8 ± 3.66 | 55 | 
COc1ccc(O)c(CN2CCCCC2)c1 [Compound 60] | > 100 |  |  | > 100 |  | 
O=C1CCCN1Cc1cc(Cl)c2cccnc2c1O [Compound 76] | 12.2 ± 0.55 | 12 | 0.84 | 10.2 ± 0.25 | 10.2 | 
CCOC(=O)C1CCCN(Cc2cc(Cl)c3cccnc3c2O)C1 (stereo not shown) [Compound 78] | 0.43 ± 0.01 |  |  | 2.52 ± 0.22 |  | IC50 [1, 11]: 1.18 µM; SR (MES-SA / MES-SA/Dx5) ([1]; fraction of IC50 in P-gp negative vs positive cells, absence of TQ): 5.91; SR (MES-SA_TQ / Dx5_TQ) (values in parentheses) [1, 12]: 1.81; IC50 [2, 13]: 2.14 µM
Oc1c(CN2CCc3ccccc3C2)cc(Cl)c2cccnc12 [Compound 80] | 0.27 ± 0.06 | 0.263 | 7.21 | 1.96 ± 0.22 | 1.95 | IC50 [1, 11]: 1.05 µM; SR (MES-SA_TQ / Dx5_TQ) (values in parentheses) [1, 12]: 1.72; SR_TQ [1, 9]: 1.72; IC50 [2, 13]: 1.81 µM; IC50 ([2]; Homo sapiens, MES-SA, read-out: pIC50 value MES-SA+TQ, MES-SA cells, with TQ (converted)): 1.78 µM
CCN1CCN(C(c2cccnc2)c2cc(Cl)c3cccnc3c2O)CC1 (stereo not shown) [Compound 118] | 23.1 ± 4.67 | 22.4 | 0.92 | 21.4 ± 0.84 | 21.4 | 
COc1ccc(C(C)=O)cc1CN1CCCCC1 [Compound 63] | > 100 |  |  | > 100 |  | 
O=Cc1ccc(O)c(CN2CCCCC2)c1 [Compound 61] | > 100 |  |  | > 100 |  | 
